Data published in patent US20260355120A1, “"GOOD" BUFFER-BASED CATIONIC LIPIDS FOR NUCLEIC ACID DELIVERY” (SANOFI VACCINES US INC., priority 2023, published 2026).

System: hEPO
Assay: Delivery of hEPO mRNA by intramuscular administration of lipid nanoparticles; serum hEPO by ELISA
Type: in vivo, female BALB/cJ mice
Conditions: single IM 0.1 μg/An hEPO mRNA LNP, lipid formulation 1 (N/P 4), MC3 and SM-102 in formulation 2 (N/P 3); for hEPO 6 Hr Mean: 6 h post injection; for hEPO 24 Hr Mean: 24 h post injection
From the text: The lipid nanoparticles in the examples of the present invention were formulated using Process A of WO 2018/089801 (see, e.g., Example 1 and FIG. 1 of WO 2018/089801). Process A (“A”) relates to a conventional method of encapsulating mRNA by mixing mRNA with a mixture of lipids, without first pre-forming the lipids into lipid nanoparticles. In an exemplary process, an ethanolic solution of a mixture of lipids (cationic lipid, phosphatidylethanolamine, cholesterol, and polyethylene glycol-lipid) at a fixed lipid to mRNA ratio were combined with an aqueous buffered solution of target mRNA at an acidic pH under controlled conditions to yield a suspension of uniform LNPs. After ultrafiltration and diafiltration into a suitable diluent system, the resulting nanoparticle suspensions were diluted to final concentration, filtered, and stored frozen at −80 °C until use.
Lipid nanoparticle formulations of Table C were prepared by Process A. All of the lipid nanoparticle formulations comprised hEPO mRNA and the different lipids (Cationic Lipid: DMG-PEG2000: Cholesterol: DOPE/DSPC) in the mol % ratios specified in Table C.
The cationic lipids of the present invention and lipid OF-02 were evaluated with lipid nanoparticle formulation 1. MC3 and SM-102 were evaluated with lipid nanoparticle formulation 2, which is a typical formulation for those lipids.
In summary, lipid screening studies were conducted with female BALB/cJ mice 6-8 weeks of age (Jax #000651). Mice were dosed with 0.1 μg in 30 μL of LNPs by a single intramuscular (IM) injection into the gastrocnemius leg muscle. Blood samples were taken 6 and 24 hours post injection and hEPO levels were measured in the blood serum of the mice using an ELISA assay according to the manufacture's protocol (R&D systems, Cat #DEP-00). WO2022/099003 A1 also describes an in vivo assay for intramuscular administration (e.g. on page 46, paragraph [00206]).

| SMILES | hEPO 6 Hr Mean [ng/mL] | hEPO 24 Hr Mean [ng/mL] |
| --- | --- | --- |
| CCCCCCCCCCCOC(=O)CCCC(O)CN(CCCCSSCCCCN1CCN(CCOC(=O)CCCN(CC(O)CCCCCC(=O)OC(CCCCCCCC)CCCCCCCC)CC(O)CCCC(=O)OCCCCCCCCCCC)CC1)CC(O)CCCCCC(=O)OC(CCCCCCCC)CCCCCCCC (stereo not shown) [Compound 14] | 26.4 | 12.8 |
| CCCCCCCC/C=C\CCCCCCCCN(CCCCCCCC(=O)OC(CCCCCCCC)CCCCCCCC)CCCCSSCCCCN1CCN(CCOC(=O)CCCN(CC(O)CCCCCCCCCC)CC(O)CCCCCCCCCC)CC1 (stereo not shown) [Compound 1] | 11 | 9.5 |
| CCCCCC/C=C\COC(=O)CCCCCCCN(CCCCCCCC(=O)OC(CCCCCCCC)CCCCCCCC)CCCCSSCCCCN1CCN(CCOC(=O)CCCN(CC(O)CCCCCCCCCC)CC(O)CCCCCCCCCC)CC1 (stereo not shown) [Compound 3] | 20.5 | 19.3 |
| CCCCCCCCCCC(O)CN(CCCC(=O)OCCN1CCN(CCCCSSCCCN(CC(O)CCCC(=O)OC(CC)CC)CC(O)CCCC(=O)OC(CC)CC)CC1)CC(O)CCCCCCCCCC (stereo not shown) [Compound 18] | 18.2 | 9.2 |
| CCCCCCCCCCC(O)CN(CCCC(=O)OCCN1CCN(CCCCSSCCCCN(CC(O)CCCC(=O)OC(CC)CC)CC(O)CCCC(=O)OC(CC)CC)CC1)CC(O)CCCCCCCCCC (stereo not shown) [Compound 17] | 19.7 | 10.4 |
| CCCCCCCCCCCOC(=O)CCCC(O)CN(CCCC(=O)OCCN1CCN(CCCCSSCCCN(CC(O)CCCCC(=O)OCC(CC)CC)CC(O)CCCCC(=O)OCC(CC)CC)CC1)CC(O)CCCCCC(=O)OC(CCCCCCCC)CCCCCCCC (stereo not shown) [Compound 12] | 37.4 | 21 |
| CCCCCC/C=C\COC(=O)CCCCCC(O)CN(CCCCSSCCCCN1CCN(CCOC(=O)CCCN(CC(O)CCCCCCCCCC)CC(O)CCCCCCCCCC)CC1)CC(O)CCCCCC(=O)OC(CCCCCCCC)CCCCCCCC (stereo not shown) [Compound 5] | 35 | 18.7 |
| CCCCCCCCCCC(O)CN(CCCC(=O)OCCN1CCN(CCCCSSCCCCN(CC(O)CCCCC(=O)OCC(CC)CC)CC(O)CCCCC(=O)OCC(CC)CC)CC1)CC(O)CCCCCCCCCC (stereo not shown) [Compound 15] | 36 | 22.8 |
| CCCCC/C=C\C/C=C\CCCCCCC(O)CN(CCCCSSCCCCN1CCN(CCOC(=O)CCCN(CC(O)CCCCCCCCCC)CC(O)CCCCCCCCCC)CC1)CC(O)CCCCCC(=O)OC(CCCCCCCC)CCCCCCCC (stereo not shown) [Compound 7] | 31.4 | 25.8 |
| CCCCCCCCCCCOC(=O)CCCCCN(CCCCCCCC(=O)OC(CCCCCCCC)CCCCCCCC)CCCC(=O)OCCN1CCN(CCCCSSCCCCN(CC(O)CCCCCC(=O)OC(CCCCCCCC)CCCCCCCC)CC2CCCC(=O)O2)CC1 (stereo not shown) [Compound 10] | 19.6 | 7.7 |
| CCCCCCCCC(CCCCCCCC)OC(=O)CCCCCC(O)CN(CCCC(=O)OCCN1CCN(CCCCSSCCCN(CC(O)CCCCC(=O)OCC(CC)CC)CC(O)CCCCC(=O)OCC(CC)CC)CC1)CC1CCCC(=O)O1 (stereo not shown) [Compound 11] | 18.7 | 10.1 |
| CCCCCCCCCCCOC(=O)CCCC(O)CN(CCCCSSCCCCN1CCN(CCOC(=O)CCCN(CC(O)CCCCCCCCCC)CC(O)CCCCCCCCCC)CC1)CC(O)CCCCCC(=O)OC(CCCCCCCC)CCCCCCCC (stereo not shown) [Compound 8] | 41.8 | 33.3 |
| CCCCCCCCCCCOC(=O)CCCCCN(CCCCCCCC(=O)OC(CCCCCCCC)CCCCCCCC)CCCCSSCCCCN1CCN(CCOC(=O)CCCN(CC(O)CCCCCCCCCC)CC(O)CCCCCCCCCC)CC1 (stereo not shown) [Compound 2] | 35.4 | 29.2 |
| CCCCCCCCCCCOC(=O)CCCCCN(CCCCCCCC(=O)OC(CCCCCCCC)CCCCCCCC)CCCC(=O)OCCN1CCN(CCCCSSCCCN(CC(O)CCCCC(=O)OCC(CC)CC)CC(O)CCCCC(=O)OCC(CC)CC)CC1 (stereo not shown) [Compound 9] | 24.3 | 15.7 |
| CCCCCCCCCCCOC(=O)CCCCCN(CCO)CCCCCCCC(=O)OC(CCCCCCCC)CCCCCCCC [SM102, SM-102, reference compound] | 12.5 | 13.3 |
| CCCCC/C=C\C/C=C\CCCCCCCCC(CCCCCCCC/C=C\C/C=C\CCCCC)OC(=O)CCCN(C)C [MC3, reference compound] | 3.9 | 2.9 |
| CCCCCCCCCCC(O)CN(CCCC(=O)OCCN1CCN(CCCCSSCCCN(CC(O)CCCCC(=O)OCC(CC)CC)CC(O)CCCCC(=O)OCC(CC)CC)CC1)CC(O)CCCCCCCCCC (stereo not shown) [Compound 16] | 32.4 | 18.7 |
| CCCCCCCCCCCOC(=O)CCCCCN(CCCCCCCC(=O)OC(CCCCCCCC)CCCCCCCC)CCCC(=O)OCCN1CCN(CCCCSSCCCCN(CC(O)CCCCCC(=O)OC(CCCCCCCC)CCCCCCCC)CC(O)CCCC(=O)OCCCCCCCCCCC)CC1 (stereo not shown) [Compound 13] | 29.5 | 13.8 |
| CCCCCCCC/C=C\CCCCCCC(O)CN(CCCCSSCCCCN1CCN(CCOC(=O)CCCN(CC(O)CCCCCCCCCC)CC(O)CCCCCCCCCC)CC1)CC(O)CCCCCC(=O)OC(CCCCCCCC)CCCCCCCC (stereo not shown) [Compound 6] | 34.7 | 18.4 |
| CCCCC/C=C\C/C=C\CCCCCCCCN(CCCCCCCC(=O)OC(CCCCCCCC)CCCCCCCC)CCCCSSCCCCN1CCN(CCOC(=O)CCCN(CC(O)CCCCCCCCCC)CC(O)CCCCCCCCCC)CC1 (stereo not shown) [Compound 4] | 18.8 | 12.1 |
